Laboratory results taken from paper PMC9295122, “Sialic Acid Derivatives Inhibit SiaT Transporters and Delay Bacterial Growth” (ACS Chemical Biology, 2022).

Molecular target: SaSiaT (Staphylococcus aureus, UniProt A0A0H2XJ46)
Assay: [3H]Neu5Ac efflux in proteoliposomes, SaSiaT
Assay type: biochemical
Settings: 0.1 mM external compound
Procedure: Figure 5 Kinetic analysis of the inhibition of recombinant SiaT from P. mirabilis (A,B) and S. aureus (C,D) reconstituted in proteoliposomes and [^3H]Neu5Ac efflux in proteoliposomes (E,F). (a–d) Data were plotted according to Lineweaver–Burk as a reciprocal transport rate vs reciprocal Neu5Ac concentration. The transport rate was measured, in 5 min, by adding [^3H] Neu5Ac at the indicated concentrations to proteoliposomes containing 20 mM K^+-gluconate in the presence of valinomycin as described in the Supporting Information. [(A,B) P. mirabilis SiaT]; (A) compound 3f 0.25 μM (●) or 0.75 μM (□) was added in comparison to samples without inhibitor (○). […] Data are calculated as the percent of residual activity with respect to the control sample (efflux time zero). […]
For uptake experiments, 600 μL of proteoliposomes were loaded onto a Sephadex G-75 column (0.7 cm diameter × 15 cm height), pre-equilibrated with 20 mM Hepes Tris pH 7.0 with 40 mM sucrose to balance the internal osmolarity. […] For kinetic measurement, the initial transport rate was measured by stopping the reaction after 5 min, that is, within the initial linear range of [^3H]-Neu5Ac uptake into the proteoliposomes previously described. […] Proteoliposomes were eluted with 1 mL of 50 mM NaCl and collected in a 4 mL of scintillation mixture, vortexed and counted.

Chain of SaSiaT (A0A0H2XJ46 entry or part of it): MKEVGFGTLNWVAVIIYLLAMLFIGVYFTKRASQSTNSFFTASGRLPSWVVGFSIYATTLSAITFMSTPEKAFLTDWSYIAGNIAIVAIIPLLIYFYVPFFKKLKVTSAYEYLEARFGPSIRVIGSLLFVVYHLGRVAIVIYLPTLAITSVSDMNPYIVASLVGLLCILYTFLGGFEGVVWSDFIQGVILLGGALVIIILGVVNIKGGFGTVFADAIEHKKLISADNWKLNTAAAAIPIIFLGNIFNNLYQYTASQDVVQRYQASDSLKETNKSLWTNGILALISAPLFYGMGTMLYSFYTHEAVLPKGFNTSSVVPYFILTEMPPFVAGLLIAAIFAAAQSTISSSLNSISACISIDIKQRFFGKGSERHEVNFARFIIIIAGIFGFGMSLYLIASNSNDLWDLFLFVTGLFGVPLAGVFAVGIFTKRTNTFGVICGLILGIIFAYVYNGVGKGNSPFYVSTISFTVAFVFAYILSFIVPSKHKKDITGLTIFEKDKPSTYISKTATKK

SMILES	[3H]Neu5Ac efflux induced
CC(=O)NC1C(OCc2cc(F)cc(F)c2)CC(O)(C(=O)O)OC1C(O)C(O)CO (centres unmarked) [Compound 3e]	to the same extent as Neu5Ac
CC(=O)NC1C(OCc2cc(Br)cc(Br)c2)CC(O)(C(=O)O)OC1C(O)C(O)CO (centres unmarked) [Compound 3f]	negligible
